Patent US5756491A, “Antiviral cobalt-organic compounds” (priority 1991, dated 1998)

Legend:
HSV-1 McKrae Strain [1] = test: Intracellular antiviral activity against HSV-1 in HFF monolayers; assay type: cell-based; conditions: Experiment 7 (Table 18), 24 h PI
Description: (§1) HSV-1 McKrae Strain was diluted to a final concentration of 10^5 PFU/ml in minimal essential medium (MEM). Hereinafter, this dilution is referred to as the HSV-1 Suspension for convenience.
(§2) With sufficient stirring, all the compounds completely dissolved.
HFF cell monolayers were inoculated with the HSV-Suspension prepared as above by absorption for thirty minutes at 37° C. After absorption of the virus, the inoculum was aspirated from the cell monolayers and the HSV-1 infected monolayers were rehydrated with medium containing the appropriate concentration of the solution of the compound by adding 500 microliters of each compound concentration to triplicate HSV-1 infected monolayers. All monolayers were incubated at 37° C. The developing HSV-1 cytopathology was monitored daily for two days by inverted light microscopy and titers were calculated by multiple […] analysis. For the intracellular anti-viral activity, "cell monolayer controls" were obtained using sham inoculated non-treated HFF cell monolayers along with the drug treated monolayers. "Positive controls" were obtained by using HSV-1 inoculated non-CTC compound treated HFF monolayers.

RE strain HSV-1 = test: HSV-1 recovery from tear film, cornea and trigeminal ganglia of treated rabbits; assay type: in vivo, NZW rabbit; conditions: for recovery of HSV-1 in tear film: Example 4
Source text: The specified number of NZW rabbits (1.5-2.0 kg) were used. Animals were received at least two days prior to inoculation to allow them to accommodate to the conditions in the vivarium facility. This conditioning of the animals prior to inoculation minimizes animal variability. After the accommodation, the animals received a slit-lamp examination to exclude any animals with pre-existing anterior segment ocular defects. Animals were bi-laterally inoculated by intrastromal injection of 10^5 PFU RE strain HSV-1. The animals were then replaced individually into cages.
[…] This was carried out by obtaining tear film by swabbing the lower and upper conjunctival sacs and retaining the swab in the nasal fornix for 10 seconds. The swabs were eluted individually in HBSS. 50 μl aliquots of the virus-HBSS eluate were absorbed under confluent HFF cell monolayers for 5 minutes. The monolayers were hydrated with MEM, incubated at 37° C. and observed daily for 1 to 2 weeks to detect developing cytopathology consistent with HSV infection (HSV CPE).
On day 10 PI, the animals were sacrificed, the corneal epithelium was scraped from the eyes and epithelial and corneal stromal cultures were preformed on HFF cell monolayers. The separation of epithelial virus from deeper stromal virus infection allows for analysis of HSV in these distinct corneal layers. Corneal epithelial and stromal co-cultures were evaluated daily by inverted light microscopy.
At sacrifice, trigeminal ganglia were removed, washed in HBSS, minced and floated over duplicate HFF cell monolayers. The cell co-cultures were monitored by inverted light microscopy for 2 weeks. Negative cultures were blind passaged twice at 7 day intervals. Detection of HSV CPE in the whole-cell co-cultures was scored either positive or negative. HSV recovery from inventive compound-treated, TFT-treated and placebo-treated trigeminal ganglia was compared and differences in recovery rates analyzed.
On day 7 PI, the animals were sacrificed, the corneal epithelium was scraped from the eyes and epithelial and corneal stromal cultures were performed on HFF cell monolayers. The separation of epithelial virus from deeper stromal virus infection allows for analysis of HSV in these distinct corneal layers. Corneal epithelial and stromal co-cultures were evaluated daily by inverted light microscopy.

HSV-1 McKrae Strain [2] = test: Direct virucidal efficacy against HSV-1 on HFF monolayers; assay type: cell-based; conditions: for effective virucidal concentration IC90 / effective virucidal concentration IC50: HSV-1
Description: as §1, §2
Each of the drug solutions were mixed with the HSV-1 Suspension in a 1:1 ratio. The drug and HSV-1 Suspension mixture was incubated at 37° C. for thirty minutes with agitation every ten minutes. After the incubation, fifty microliter aliquots were overlaid onto triplicate confluent human foreskin fibroblast (HFF) cell monolayers. The inoculum was absorbed for thirty minutes and then a medium containing the appropriate drug concentration in MEM was added to the monolayers to a final volume of 0.5 milliliters per culture-well. The monolayers were incubated at 37° C. The developing HSV-1 Cytopathology was monitored daily for two days by inverted light microscopy. Titers were calculated by multiple regression analysis. All data is presented as the average PFU/ml reduction at 24 and/or 48 hours after inoculation (PI).
1. HSV-1 inoculated, non-compound treated HFF monolayers were included as "positive controls"; and […]

[3] = Experiment 1 (Table 2), 24 h PI, 0.001 mg/ml
[4] = Experiment 1 (Table 2), 24 h PI, 0.1 mg/ml
[5] = Experiment 1 (Table 2), 24 h PI, 10 mg/ml
[6] = Experiment 1 (Table 2), 24 h PI, .01 mg/ml
[7] = Experiment 1 (Table 2), 48 h PI, 1 mg/ml
[8] = Experiment 1 (Table 2), 48 h PI, 10 mg/ml
[9] = Experiment 2 (Table 5), 24 h PI, 0.001 mg/ml
[10] = Experiment 2 (Table 5), 24 h PI, 0.1 mg/ml
[11] = Experiment 2 (Table 5), 24 h PI, 10 mg/ml
[12] = Experiment 2 (Table 5), 48 h PI, 1 mg/ml

## CC1=CC(C)=[N+]2CC[N+]3=C(C)C=C(C)[O][Co-3]23([NH3+])([NH3+])[O]1.[Cl-] [Compound 23, reference compound]
HSV-1 McKrae Strain [1]; 0.01 mg/ml
  antiviral efficacy (HSV-1 titer): 10^2 PFU/ml
HSV-1 McKrae Strain [1]; 0.5 mg/ml
  antiviral efficacy (HSV-1 titer): 0-10^1 PFU/ml
HSV-1 McKrae Strain [1]; 1 mg/ml
  antiviral efficacy (HSV-1 titer): 0 PFU/ml
HSV-1 McKrae Strain [1]; 2 mg/ml
  antiviral efficacy (HSV-1 titer): 0 PFU/ml
HSV-1 McKrae Strain [1]; 5 mg/ml
  antiviral efficacy (HSV-1 titer): 0 PFU/ml
RE strain HSV-1; Example 3
  HSV-1 recovery from corneal epithelial cultures vs other therapy groups: significantly reduced
RE strain HSV-1; Example 3 (Table 22)
  HSV-1 recovery, corneal epithelium (C.E.): 20%
  HSV-1 recovery, corneal stroma (C.S.): 50%
  HSV-1 recovery, trigeminal ganglia (T.G.): 50%
RE strain HSV-1; Example 3 (Table 22), day 3 PI
  HSV-1 recovery, tear film (positive samples of total): 100%
RE strain HSV-1; Example 3 (Table 22), day 5 PI
  HSV-1 recovery, tear film (positive samples of total): 100%
RE strain HSV-1; Example 3 (Table 22), day 7 PI
  HSV-1 recovery, tear film (positive samples of total): 80%
RE strain HSV-1; Example 3 (Table 22), day 9 PI
  HSV-1 recovery, tear film (positive samples of total): 0%
RE strain HSV-1
  recovery of HSV-1 in tear film: reduced the recovery of HSV-1 in tear film
RE strain HSV-1; Example 5 (Table 23)
  HSV-1 recovery, corneal stroma: 80%
RE strain HSV-1; Example 5 (Table 23), column 1
  HSV-1 recovery (positive cultures per total): 0%
RE strain HSV-1; Example 5 (Table 23), column 3
  HSV-1 recovery (positive cultures per total): 100%
RE strain HSV-1; Example 5 (Table 23), column 5
  HSV-1 recovery (positive cultures per total): 90%
RE strain HSV-1; Example 5 (Table 23), column 7
  HSV-1 recovery (positive cultures per total): 80%
HSV-1 McKrae Strain [2]; [3]
  virucidal efficacy (HSV-1 titer): 10^5 PFU/ml
HSV-1 McKrae Strain [2]; [4]
  virucidal efficacy (HSV-1 titer): 10^1 PFU/ml
HSV-1 McKrae Strain [2]; Experiment 1 (Table 2), 24 h PI, 1 mg/ml
  virucidal efficacy (HSV-1 titer): 0 PFU/ml
HSV-1 McKrae Strain [2]; [5]
  virucidal efficacy (HSV-1 titer): 0 PFU/ml
HSV-1 McKrae Strain [2]; [6]
  virucidal efficacy (HSV-1 titer): 10^3 PFU/ml
HSV-1 McKrae Strain [2]; Experiment 1 (Table 2), 48 h PI, 0.1 mg/ml
  virucidal efficacy (HSV-1 titer): 10^5 PFU/ml
HSV-1 McKrae Strain [2]; [7]
  virucidal efficacy (HSV-1 titer): 10^5 PFU/ml
HSV-1 McKrae Strain [2]; [8]
  virucidal efficacy (HSV-1 titer): O/T
HSV-1 McKrae Strain [2]; Experiment 1 (Table 3)
  effective virucidal concentration IC90: 100 µg/mL
HSV-1 McKrae Strain [2]; [9]
  virucidal efficacy (HSV-1 titer): 10^3 PFU/ml
HSV-1 McKrae Strain [2]; Experiment 2 (Table 5), 24 h PI, 0.01 mg/ml
  virucidal efficacy (HSV-1 titer): 10^2 PFU/ml
HSV-1 McKrae Strain [2]; [10]
  virucidal efficacy (HSV-1 titer): 10^1 PFU/ml
HSV-1 McKrae Strain [2]; Experiment 2 (Table 5), 24 h PI, 1 mg/ml
  virucidal efficacy (HSV-1 titer): 0 PFU/ml
HSV-1 McKrae Strain [2]; [11]
  virucidal efficacy (HSV-1 titer): 0 PFU/ml
HSV-1 McKrae Strain [2]; Experiment 2 (Table 5), 48 h PI, 0.1 mg/ml
  virucidal efficacy (HSV-1 titer): 10^5 PFU/ml
HSV-1 McKrae Strain [2]; [12]
  virucidal efficacy (HSV-1 titer): 0 PFU/ml
HSV-1 McKrae Strain [2]; Experiment 2 (Table 5), 48 h PI, 10 mg/ml
  virucidal efficacy (HSV-1 titer): O/T
HSV-1 McKrae Strain [2]; Experiment 3 (Table 8), 24 h PI, 0.001 mg/ml
  virucidal efficacy (HSV-1 titer): 10^5 PFU/ml
HSV-1 McKrae Strain [2]; Experiment 3 (Table 8), 24 h PI, 0.01 mg/ml
  virucidal efficacy (HSV-1 titer): 10^3 PFU/ml
HSV-1 McKrae Strain [2]; Experiment 3 (Table 8), 24 h PI, 0.1 mg/ml
  virucidal efficacy (HSV-1 titer): 10^1 PFU/ml
HSV-1 McKrae Strain [2]; Experiment 3 (Table 8), 24 h PI, 1 mg/ml
  virucidal efficacy (HSV-1 titer): 0 PFU/ml
HSV-1 McKrae Strain [2]; Experiment 3 (Table 8), 48 h PI, 0.1 mg/ml
  virucidal efficacy (HSV-1 titer): 10^5 PFU/ml
HSV-1 McKrae Strain [2]; Experiment 3 (Table 8), 48 h PI, 1 mg/ml
  virucidal efficacy (HSV-1 titer): 10^5 PFU/ml
HSV-1 McKrae Strain [2]; Experiment 6 (Table 16), 24 h PI, 0.1 mg/ml
  virucidal efficacy (HSV-1 titer): 10^0-1 PFU/ml
HSV-1 McKrae Strain [2]; Experiment 6 (Table 16), 24 h PI, 0.5 mg/ml
  virucidal efficacy (HSV-1 titer): 0 PFU/ml
HSV-1 McKrae Strain [2]; Experiment 6 (Table 16), 24 h PI, 1 mg/ml
  virucidal efficacy (HSV-1 titer): 0 PFU/ml
HSV-1 McKrae Strain [2]; Experiment 6 (Table 16), 24 h PI, 2 mg/ml
  virucidal efficacy (HSV-1 titer): 0 PFU/ml
HSV-1 McKrae Strain [2]; Experiment 6 (Table 16), 24 h PI, 5 mg/ml
  virucidal efficacy (HSV-1 titer): 0 PFU/ml

## CC([O-])=CC(C)=NCCN=C(C)C=C(C)[O-].[Cl-].[Co+3].c1c[nH]cn1.c1c[nH]cn1 [Compound 82]
RE strain HSV-1
  recovery of HSV-1 in tear film: reduced the recovery of HSV-1 in tear film
HSV-1 McKrae Strain [2]; [3]
  virucidal efficacy (HSV-1 titer): 10^5 PFU/ml
HSV-1 McKrae Strain [2]; [4]
  virucidal efficacy (HSV-1 titer): 10^2 PFU/ml
HSV-1 McKrae Strain [2]; [5]
  virucidal efficacy (HSV-1 titer): 0 PFU/ml
HSV-1 McKrae Strain [2]; [6]
  virucidal efficacy (HSV-1 titer): 10^4 PFU/ml
HSV-1 McKrae Strain [2]; [7]
  virucidal efficacy (HSV-1 titer): 10^5 PFU/ml
HSV-1 McKrae Strain [2]; [8]
  virucidal efficacy (HSV-1 titer): O/T
HSV-1 McKrae Strain [2]; Experiment 1 (Table 3)
  effective virucidal concentration IC50: 100 µg/mL
  effective virucidal concentration IC90: 1000 µg/mL
HSV-1 McKrae Strain [2]; Experiment 1 comment, less than that observed for 23 and 76
  virucidal efficacy (IC50) compared with 23 and 76: one order of magnitude less
HSV-1 McKrae Strain [2]; [9]
  virucidal efficacy (HSV-1 titer): 10^4 PFU/ml
HSV-1 McKrae Strain [2]; [10]
  virucidal efficacy (HSV-1 titer): 10^2 PFU/ml
HSV-1 McKrae Strain [2]; [11]
  virucidal efficacy (HSV-1 titer): 0 PFU/ml
HSV-1 McKrae Strain [2]; [12]
  virucidal efficacy (HSV-1 titer): 10^5 PFU/ml
HSV-1 McKrae Strain [2]; Experiment 2 (Table 6)
  effective virucidal concentration IC50: 100 µg/mL
  effective virucidal concentration IC90: 1000 µg/mL
